Experiment: Human HepG2 cell viability assay in 384 well format
Type: toxicity, cell-based
Parameters: dose 125 nL, time 70.5 hour; concentration not given beside the values
Settings: HepG2 cells, read-out: Inhibition

## CCNC(=O)c1cccc(CNC(=O)c2cnc(C(C)(C)C)s2)c1
  cytotoxicity at 70.5 h: 2.86%

## Cc1ccc(O)c(CNc2cccc(OCCF)c2)n1
  cytotoxicity at 70.5 h: -5.5%

## NC(=O)N1CCC(NCc2cc(Br)ccc2Cl)CC1
  cytotoxicity at 70.5 h: -1.95%

## Cc1ccc(OCC(=O)Nc2cc(C(=O)O)cc(S(C)(=O)=O)c2)cc1C
  cytotoxicity at 70.5 h: 0.676%

## NC(=O)CN1CCC(NCc2cc(C(F)(F)F)ccc2Cl)CC1
  cytotoxicity at 70.5 h: -4.69%

## Cc1cc(N2CCCC(c3nncn3C3CC3)C2)ncn1 (configuration not stated)
  cytotoxicity at 70.5 h: -2.44%

## Cc1ccc(CN(CCN(C)C)C(=O)Cc2cn3ccccc3n2)o1
  cytotoxicity at 70.5 h: -3.69%

## CN(Cc1cnn(C)c1)CC(O)c1ccc2c(c1)OCO2 (configuration not stated)
  cytotoxicity at 70.5 h: -2.83%

## CCC(=O)N1CCC(NCc2cc(C(F)(F)F)ccc2Cl)C1 (configuration not stated)
  cytotoxicity at 70.5 h: -4.4%

## COc1cccc(C(C)N2CCN(S(=O)(=O)CCCF)CC2)c1 (configuration not stated)
  cytotoxicity at 70.5 h: 34.9%

## O=C(Nc1nncs1)c1ccc(O)nc1
  cytotoxicity at 70.5 h: 0.228%

## O=C(CN(Cc1cccs1)C1CCS(=O)(=O)C1)NCC1CCCCC1 (configuration not stated)
  cytotoxicity at 70.5 h: -1.81%

## COc1c(F)cc(NCC(=O)NC(C)(C#N)C2CC2)cc1F (configuration not stated)
  cytotoxicity at 70.5 h: -0.61%

## CC(c1cccc(Cl)c1)N1CCN(S(C)(=O)=O)CC1 (configuration not stated)
  cytotoxicity at 70.5 h: -1.61%

## Cn1cc(CNC(=O)Nc2ccc(S(=O)(=O)C(F)F)cc2)cn1
  cytotoxicity at 70.5 h: 0.531%

## O=C1NCCCCC1SCc1coc(-c2ccccc2)n1 (configuration not stated)
  cytotoxicity at 70.5 h: -2.46%

## CC(C#N)CNC(=O)Nc1ccc(Br)cc1 (configuration not stated)
  cytotoxicity at 70.5 h: 2.54%

## CC(=O)NC(Cc1c[nH]c2cc(F)ccc12)C(=O)Nc1nncs1 (configuration not stated)
  cytotoxicity at 70.5 h: -2.58%

## CC(=O)NC(Cc1c[nH]c2cc(F)ccc12)C(=O)Nc1cnn(C)c1 (configuration not stated)
  cytotoxicity at 70.5 h: 1.79%

## CCS(=O)(=O)CC(=O)Nc1ccc2oc(C3CC3)nc2c1
  cytotoxicity at 70.5 h: -0.903%

## Cc1nc(C2CCN(S(=O)(=O)c3ccc(Cl)cc3)CC2)n[nH]1
  cytotoxicity at 70.5 h: 1.07%

## Cc1nc(C2CCN(S(=O)(=O)c3ccc4c(c3)CCO4)CC2)n[nH]1
  cytotoxicity at 70.5 h: 0.662%

## CN(C)Cc1ccnc(NS(=O)(=O)CCc2ccccc2)c1
  cytotoxicity at 70.5 h: 3.89%

## O=C(Cc1cccc(F)c1F)N1CCOC(c2cccc(O)c2)C1 (configuration not stated)
  cytotoxicity at 70.5 h: -2.65%

## O=C(c1ccco1)N(c1ccc(F)cn1)C1CCOCC1
  cytotoxicity at 70.5 h: 26.4%

## CC(NS(C)(=O)=O)C(=O)Nc1ccc2oc(C3CC3)nc2c1 (configuration not stated)
  cytotoxicity at 70.5 h: -3.24%

## CS(=O)(=O)c1ccc(NCc2ccc(F)cc2)cn1
  cytotoxicity at 70.5 h: -6.37%

## O=C1NCCCCC1SCc1coc(-c2ccc(F)cc2)n1 (configuration not stated)
  cytotoxicity at 70.5 h: 20.1%

## O=C(c1ccncc1)N1CCCN(Cc2nnc(C3CC3)o2)CC1
  cytotoxicity at 70.5 h: -2.96%

## CCOC(C)c1nc(COc2nc(C)no2)cs1 (configuration not stated)
  cytotoxicity at 70.5 h: -3.02%

## COc1cccc(C(C)N2CCN(S(=O)(=O)c3ccccc3)CC2)c1 (configuration not stated)
  cytotoxicity at 70.5 h: -2.4%

## O=C(C1CCCS1)N1CCOc2cccc(F)c21 (configuration not stated)
  cytotoxicity at 70.5 h: -3.7%

## O=C(C1CCC1)N1CCOc2cccc(F)c21
  cytotoxicity at 70.5 h: -9.1%

## CCC1CCCN(S(=O)(=O)c2cnn(C)c2)C1 (configuration not stated)
  cytotoxicity at 70.5 h: -0.41%

## COc1cccc(C(=O)Nc2ccc(OCCC(N)=O)cc2)c1OC
  cytotoxicity at 70.5 h: -5.04%

## CCOC(=O)NCC(=O)Nc1nc2ccccc2n1C(C)(C)C
  cytotoxicity at 70.5 h: 5.06%

## Cc1ccc(C(=O)NCCS(=O)(=O)Cc2ccccc2)c(=O)[nH]1
  cytotoxicity at 70.5 h: -9.89%

## COc1ccccc1C1(CNc2cn[nH]c(=O)c2Cl)CC1
  cytotoxicity at 70.5 h: -12.7%

## COc1ccc(C)cc1C1(CNc2cncc(Cl)n2)CCOCC1
  cytotoxicity at 70.5 h: -8.23%

## COc1ccc(F)cc1Cn1nc(C(N)=O)ccc1=O
  cytotoxicity at 70.5 h: 6.09%

## Cc1nc(C)n(CC2CCCN(c3ccnc(-c4ccccc4)n3)C2)n1 (configuration not stated)
  cytotoxicity at 70.5 h: -10.2%

## CCn1nnnc1-c1cccc(NC(=O)COC2CCCC2)c1
  cytotoxicity at 70.5 h: 6.8%

## CCn1nnnc1-c1cccc(NC(=O)CCc2cnn(C)c2)c1
  cytotoxicity at 70.5 h: -2.12%

## NS(=O)(=O)CCNC(=O)CCc1cc(Br)cs1
  cytotoxicity at 70.5 h: 1.86%

## Cc1cc(C)nc(NC2CCc3nc(C)nn3C2)n1 (configuration not stated)
  cytotoxicity at 70.5 h: -5.94%

## Cc1cc(N(C)C)nc(NC2CCc3nc(C)nn3C2)n1 (configuration not stated)
  cytotoxicity at 70.5 h: 6.17%

## Cc1ccc(C)c(C(O)Cn2cc(Cl)c(=O)[nH]c2=O)c1 (configuration not stated)
  cytotoxicity at 70.5 h: 13.1%
